Experimental findings from patent US20080021024A1, “Metalloprotease inhibitors” (Alantos Pharmaceuticals Holding, Inc., priority 2006, published 2008) are described below.

For orientation: IC50 means the concentration at which inhibition is half-maximal. Read a high IC50 as weaker potency in that assay.

The assay addresses T1, catalytic domain of MMP-13 enzyme (Homo sapiens, UniProt P45452).
T1 construct: 10 μL of a 50 nM stock solution of catalytic domain of MMP-13 enzyme (produced by Alantos) is added; made in house
Description: Assay for determining MMP-13 inhibition (fluorescent substrate). It is filed as biochemical. The note with it: Table 1, Summary of MMP-13 Activity for Compounds of Formula I. On the procedure: The MMP-13 inhibiting activity of the MMP-13 inhibiting compounds of the present invention may be measured using any suitable assay known in the art. A standard in vitro assay for MMP-13 inhibiting activity is described in Example 3000.
The typical assay for MMP-13 activity is carried out in assay buffer comprised of 50 mM Tris, pH 7.5, 150 mM NaCl, 5 mM CaCl2 and 0.05% Brij-35. Different concentrations of tested compounds are prepared in assay buffer in 50 μL aliquots. 10 μL of a 50 nM stock solution of catalytic domain of MMP-13 enzyme (produced by Alantos) is added to the compound solution. The mixture of enzyme and compound in assay buffer is thoroughly mixed and incubated for 10 min at room temperature. Upon the completion of incubation, the assay is started by addition of 40 μL of a 12.5 μM stock solution of MMP-13 fluorescent substrate (Calbiochem, Cat. No. 444235). The time-dependent increase in fluorescence is measured at the 320 nm excitation and 390 nm emission by automatic plate multireader. The IC50 values are calculated from the initial reaction rates.
On to `Cc1cc(CNC(=O)c2cc(NS(=O)(=O)Cc3ccc(-c4nn[nH]n4)cc3)ncn2)ccc1F`, for which the IC50 was under 1000 nM.
With `O=C(NCc1ccc(-c2nnn[nH]2)cc1)c1cc(NS(=O)(=O)Cc2ccccc2)ncn1` the figure was over 5 nM.
As for `CC(C(=O)Nc1cc(C(=O)NCc2ccc(F)cc2)ncn1)c1ccc(-c2nnn[nH]2)cc1` (centres unmarked), the figure is over 5 nM; as for `N#Cc1ccc(CC(=O)Nc2cc(C(=O)NCc3ccc(F)cc3)ncn2)cc1`, under 1000 nM; as for `CC(C)(C(=O)Nc1cc(C(=O)NCc2ccc(F)cc2)ncn1)c1ccc(-c2nnn[nH]2)cc1`, under 1000 nM.
As for `O=C(Cc1ccc2c(c1)CCO2)Nc1cc(C(=O)NCc2ccc(-c3nnn[nH]3)cc2)ncn1`, the figure is under 1000 nM.
The molecule `CS(=O)(=O)c1ccc(CC(=O)Nc2cc(C(=O)NCc3ccc(-c4nnn[nH]4)cc3)ncn2)cc1` came in with an IC50 of over 5 nM.
With `N#Cc1ccc(CNC(=O)c2cc(NC(=O)Cc3ccc4c(c3)OCO4)ncn2)cc1` the figure was under 1000 nM.
